In paper PMC8063737 (The Journal of Biological Chemistry, 2021):
Entries after “also recorded” stand apart in the source; their conditions may differ. Read-outs that look alike come from different tables or passages of the source.

Assays:
[1] = target: T1, PFA.C.S1 complex (F-actin with cardiac S1) (Oryctolagus cuniculus, UniProt P68135); assay: Steady-state S1 binding to and ATP-induced dissociation from the PFA.compound complex; format: biochemical, bovine; conditions: 0.7:1 S1:actin, rigor; compound 100 μM except Flu and Dan 50 μM, Mit 10 μM
T1 construct: Rabbit skeletal F-actin was prepared as described previously from acetone powder; tissue Pelfreez Biologicals (bovine left ventricular muscle); host or cells: rabbit skeletal muscle (actin); bovine left ventricular muscle (myosin S1)
Method: We then added Mg.ATP and measured PFA fluorescence (Fig. 8B, peach bars).
Fluorescence spectra of 2 μM PFA in F-Mg buffer were acquired with a Cary spectrophotometer. The sample was placed in a cuvette in a temperature-controlled holder and excited with a Xenon flash lamp at 365 nm with 5 nm slit width. Emission fluorescence intensity was acquired and averaged for 30 s at 407 nm with a 10 nm slit width. […] Fluorescence intensity (F) was corrected for each compound's emission at 407 nm.
Fcalc was determined from normalized fluorescence intensity:(5) Fcalc=(FCompound+F0.7S1)

[2] = target: T2, pyrene-labeled F-actin (PFA) (Oryctolagus cuniculus, UniProt P68135); assay: Compound binding to pyrene-labeled F-actin, steady-state fluorescence dose response; parameters: species or system rabbit; conditions: for effect on PFA (pyrene) fluorescence, dose-response: 2.5–150 μM compound
T2 construct: Rabbit skeletal F-actin was prepared as described previously from acetone powder; from tissue; host or cells: rabbit skeletal muscle (acetone powder)

[3] = test system: skeletal and cardiac actin; parameters: method as in PMID 32788211; conditions: cited from earlier work; for isoform-specific differences in actin polymerization: skeletal versus cardiac actin
[4] = target: T3, rigor PFA.S1 complex (cardiac myosin S1) (Oryctolagus cuniculus, UniProt P68135); assay: Stopped-flow ATP-induced dissociation of actin-S1 complex (ATP binding and isomerization); format: biochemical, bovine; conditions: for decrease in rate constant k+2 for isomerization versus control: hyperbolic fits of kobs1 versus [MgATP]; for overall category of compound effect: severe if at least one parameter (K1 or k+2) was affected >3-fold; for effect on K1 (shown as 1/K1), category: versus control
T3 construct: Rabbit skeletal F-actin was prepared as described previously from acetone powder; tissue Pelfreez Biologicals (bovine left ventricular muscle); host or cells: rabbit skeletal muscle (actin); bovine left ventricular muscle (myosin S1)
Method: To determine the equilibrium constant K1 for the formation of the collision complex, A.M.T, the rigor complex of PFA and myosin-S1 complex was formed in one syringe and the Mg.ATP placed in another syringe. […] (Equation 10). The rate constant k+2 was determined from hyperbolic plots of kobs1 versus [MgATP] […] The association equilibrium constant K1 was determined from the ratio of K1k+2/k+2.
Experiments were performed at 25 °C with filtered and degassed solutions. The instrument dead time for single-mix experiments was 1.3 ms. Samples were excited at 365 nm, and pyrene emission fluorescence was acquired with a 2 mm path length and 400 nm long-pass filter. Data analysis was done using the program, ORIGIN (OriginLab Corp).
K1 was determined by mixing the rigor complex of PFA.S1 (A.M) (final concentration of 0.05 μM) with varying final concentrations of MgATP (12.5–1000 μM) in F-Mg buffer in the absence and presence of the compounds, whereby the PFA.compound complex was first made, then mixed with S1, and placed in one syringe, and MgATP solution was placed in the other syringe. The transient curves were fitted to rate constants, kobs, fast and kobs, slow, and with corresponding amplitudes A1 and A2.

PFA.C.S1 complex = target: T4, PFA.C.S1 complex (Oryctolagus cuniculus, UniProt P68135); assay: Chase experiment: dissociation of S1 from rigor actin-S1 complex by unlabeled F-actin; format: biochemical, bovine; conditions: 20-fold unlabeled F-actin chase, 0.25 μM PFA.S1, 20 min
T4 construct: Rabbit skeletal F-actin was prepared as described previously from acetone powder; tissue Pelfreez Biologicals (bovine left ventricular muscle); host or cells: rabbit skeletal muscle (actin); bovine left ventricular muscle (myosin S1)
From the text: The transient curve was best fitted to a double exponential equation to yield a fast and slow rate constant of 0.01 ± 5E-4 s^−1 and 0.003 ± 4E-4 s^−1, respectively.

[5] = clinical use, cited from earlier work; for liver toxicity: ref 26 for Dan
[6] = test system: PFA.S1 (pyrene-labeled F-actin with cardiac myosin S1); assay: Steady-state PFA fluorescence with myosin-binding drugs (PFA, PFA.S1, plus MgATP); format: biochemical, bovine; conditions: 5 μM drug; for change in PFA fluorescence: 2 μM PFA, no S1; for PFA fluorescence restored by addition of MgATP: 2 μM PFA.S1, 1 mM MgATP, 95% without compound; for effect on S1-induced decrease in pyrene fluorescence: S1 equimolar to actin, no ATP
Method: (§1) Fluorescence spectra of 2 μM PFA in F-Mg buffer were acquired with a Cary spectrophotometer. The sample was placed in a cuvette in a temperature-controlled holder and excited with a Xenon flash lamp at 365 nm with 5 nm slit width. Emission fluorescence intensity was acquired and averaged for 30 s at 407 nm with a 10 nm slit width. A final concentration of 2 μM PFA in F-actin buffer was used. Fluorescence intensity (F) was corrected for each compound's emission at 407 nm.

[7] = test system: equimolar PFA.S1 (2 μM) complex; assay: Effect of nucleotide analogs on PFA-S1 fluorescence; format: biochemical, bovine; conditions: 10 mM PPi
Method: The ten compounds were obtained from Target Molecule Corp and stored at –20 °C as 10 mM stock solutions in DMSO until use. OM and Mava were obtained from Selleck Chemicals and stored as 10 mM stock solutions at –20 °C until use. Sodium vanadate ([…]) and potassium pyrophosphate (PPi) were obtained from Sigma-Aldrich, and stock solutions of 50 mM and 1 M, respectively, were prepared as described previously ([36]). […] To study the effect of pyrophosphate, 10 mM PPi was added to an equimolar PFA.S1 (2 μM) complex. These ligand concentrations were saturating.
as §1

[8] = 2 μM PFA, no MgATP, fits to the Hill equation, read-out: apparent dissociation equilibrium constant, Kd, of compound binding to PFA
[9] = 2 μM PFA, 200-500 μM MgATP, read-out: Kd of compound binding to PFA in the presence of MgATP

Row | SMILES | decrease in PFA fluorescence of PFA.compound.S1, experimental versus calculated (Fcalc) [1] | effect on PFA (pyrene) fluorescence, dose-response ([2]; 2 μM PFA) | polymerization rate of skeletal and cardiac actin [3] | overall category of compound effect [4] | increase in K1 versus control [4] [factor] | also measured
1 | COc1ccccc1OCCNCC(O)COc1cccc2[nH]c3ccccc3c12 (stereo not shown) [Car] | greater decrease in PFA fluorescence | minimal effects | reduced the polymerization rate | mild (mild effects to be <1.5-fold) | – | decrease in rate constant k+2 for isomerization versus control [4]: < 1.5 fold; effect on K1 (shown as 1/K1), category [4]: mild (mild effects to be <1.5-fold)
2 | O=C1CN(/N=C/c2ccc(-c3ccc([N+](=O)[O-])cc3)o2)C(O)=N1 [Dan, Dantrolene] | smaller decrease in PFA fluorescence than expected | decreased PFA fluorescence with hyperbolic dependence | did not have significant effects | severe (severe effects to be >3-fold) | ≥ 2 | rate of dissociation of S1 from rigor actin-S1 complex versus control (PFA.C.S1 complex): No significant change; Kd [2, 8]: 17.5 ± 6 µM; liver toxicity [5]: causes hepatoxicity
3 | OCCN1CCN(CCCN2c3ccccc3Sc3ccc(C(F)(F)F)cc32)CC1 [Flp] | – | – | reduced the polymerization rate | – | – | liver toxicity [5]: cause liver toxicity
4 | CC(C)C(=O)Nc1ccc([N+](=O)[O-])c(C(F)(F)F)c1 [Flu] | smaller decrease in PFA fluorescence than expected | decreased PFA fluorescence with hyperbolic dependence | – | severe (severe effects to be >3-fold) | ≥ 2 | rate of dissociation of S1 from rigor actin-S1 complex versus control (PFA.C.S1 complex): No significant change; Kd [2]: 39.6 ± 22 µM; effect of MgATP on fluorescence of PFA–compound complexes ([2]; 200-500 μM MgATP): MgATP relieves the fluorescence inhibition
5 | C=CCc1ccc(O)c(-c2ccc(O)c(CC=C)c2)c1 [Hon] | no effect | minimal effects | did not have significant effects | mild (mild effects to be <1.5-fold) | – | decrease in rate constant k+2 for isomerization versus control [4]: < 1.5 fold; effect on K1 (shown as 1/K1), category [4]: mild (mild effects to be <1.5-fold)
6 | CC(C)n1c(=O)cc(N[C@@H](C)c2ccccc2)[nH]c1=O [Mava, mavacamten] | – | – | – | – | – | change in PFA fluorescence [6]: 1%; PFA fluorescence restored by addition of MgATP [6]: 97%; effect on S1-induced decrease in pyrene fluorescence [6]: no effect
7 | OC(c1cc(C(F)(F)F)nc2c(C(F)(F)F)cccc12)C1CCCCN1 (stereo not shown) [Mef] | smaller decrease in PFA fluorescence than expected | decreased PFA fluorescence with hyperbolic dependence | did not have significant effects | severe (severe effects to be >3-fold) | ≥ 2 | Kd [2, 9]: 89 ± 28.4 µM; Kd [2, 8]: 20 ± 10 µM; effect of MgATP on fluorescence of PFA–compound complexes ([2]; 200-500 μM MgATP): increased PFA fluorescence in the presence of MgATP; also recorded: MgATP relieves the fluorescence inhibition
8 | O=C1c2c(O)ccc(O)c2C(=O)c2c(NCCNCCO)ccc(NCCNCCO)c21 [Mit, mitoxantrone] | smaller decrease in PFA fluorescence than expected | decreased PFA fluorescence with hyperbolic dependence | reduced the polymerization rate | severe (severe effects to be >3-fold) | ≥ 2 | rate of dissociation of S1 from rigor actin-S1 complex versus control (PFA.C.S1 complex): No significant change; Kd [2, 9]: 24.7 ± 5.8 µM; Kd [2, 8]: 7.2 ± 1.2 µM; effect of MgATP on fluorescence of PFA–compound complexes ([2]; 200-500 μM MgATP): increased PFA fluorescence in the presence of MgATP; also recorded: MgATP relieves the fluorescence inhibition
9 | COC(=O)N1CCN(Cc2cccc(NC(=O)Nc3ccc(C)nc3)c2F)CC1 [OM, omecamtiv mecarbil] | – | – | – | – | – | change in PFA fluorescence [6]: 4%; PFA fluorescence restored by addition of MgATP [6]: 65%; effect on S1-induced decrease in pyrene fluorescence [6]: no effect
10 | c1ccc2c(c1)Nc1ccccc1S2 [Phn] | greater decrease in PFA fluorescence | minimal effects | – | severe (severe effects to be >3-fold) | ≥ 2 | isoform-specific differences in actin polymerization [3]: showed isoform-specific differences
11 | CCCCCNC(=N)N/N=C/c1c[nH]c2ccc(OC)cc12 [Teg] | smaller decrease in PFA fluorescence than expected | minimal effects | – | severe (severe effects to be >3-fold) | ≥ 2 | heart failure ([5]; FDA caution or withdrawal): can contribute to heart failure; isoform-specific differences in actin polymerization [3]: showed isoform-specific differences
12 | CSc1ccc2c(c1)N(CCC1CCCCN1C)c1ccccc1S2 (stereo not shown) [Thi] | – | – | reduced the polymerization rate | – | – | liver toxicity [5]: cause liver toxicity; isoform-specific differences in actin polymerization [3]: showed isoform-specific differences
13 | O=P([O-])([O-])OP(=O)([O-])[O-].[K+].[K+].[K+].[K+] [potassium pyrophosphate (PPi), potassium pyrophosphate] | – | – | – | – | – | restoration of pyrene fluorescence of PFA-S1 [7]: almost completely restored
